From PMC10026625 (RSC Advances, 2023)

Tested on: SARS-CoV-2 ancestral Wuhan strain (OMC-510) / VeroE6/TMPRSS2 cells
Conditions: plaque reduction assay

## CC[C@H](C)[C@H](NC(C)=O)C(=O)N[C@@H](CO)C(=O)NCC(=O)N[C@H](C(=O)N[C@@H](CC(N)=O)C(=O)N[C@@H](C)C(=O)N[C@@H](CO)C(=O)N[C@H](C(=O)N[C@H](C(=O)N[C@@H](CC(N)=O)C(=O)N[C@H](C(=O)N[C@@H](CCC(N)=O)C(=O)N[C@@H](CCC(=O)O)C(=O)N[C@@H](CCC(=O)O)C(=O)N[C@H](C(=O)N[C@@H](CCCCN)C(=O)N[C@@H](CCCNC(=N)N)C(=O)N[C@@H](CC(C)C)C(=O)N[C@@H](CC(N)=O)C(=O)N[C@@H](CCC(=O)O)C(=O)N[C@H](C(=O)N[C@@H](C)C(=O)N[C@@H](CCCCN)C(=O)N[C@@H](CCCCN)C(=O)N[C@@H](CC(C)C)C(=O)N[C@@H](CC(N)=O)C(=O)N[C@@H](CCC(=O)O)C(=O)N[C@@H](CO)C(=O)N[C@@H](CC(C)C)C(=O)N[C@H](C(=O)N[C@@H](CC(=O)O)C(=O)N[C@@H](CC(C)C)C(=O)N[C@@H](CCC(N)=O)C(=O)N[C@@H](CCC(=O)O)C(N)=O)[C@@H](C)CC)C(C)C)[C@@H](C)CC)[C@@H](C)CC)C(C)C)C(C)C)[C@@H](C)CC [Peptide 3a]
  times higher antiviral activity than peptide 1a: ~4 times
  times higher antiviral activity than peptide 2a: approximately 10 times
